Data reported in patent US20170291890A1 (Epizyme, Inc., priority 2014, published 2017).

Columns and labels:
[1] = molecular target: T1, KDM4A (Homo sapiens, UniProt O75164); test: KDM4A Assay (SAMDI mass spectrometry demethylase assay); format: biochemical; conditions: N-terminal His-tagged KDM4A 1-350; class symbols; read-out: 4A IC50
T1 construct: N-terminal His-tagged KDM4A^1-350 was purchased from BPS Biosciences; His (N); purchased BPS Biosciences
T1 sequence (O75164 1-350): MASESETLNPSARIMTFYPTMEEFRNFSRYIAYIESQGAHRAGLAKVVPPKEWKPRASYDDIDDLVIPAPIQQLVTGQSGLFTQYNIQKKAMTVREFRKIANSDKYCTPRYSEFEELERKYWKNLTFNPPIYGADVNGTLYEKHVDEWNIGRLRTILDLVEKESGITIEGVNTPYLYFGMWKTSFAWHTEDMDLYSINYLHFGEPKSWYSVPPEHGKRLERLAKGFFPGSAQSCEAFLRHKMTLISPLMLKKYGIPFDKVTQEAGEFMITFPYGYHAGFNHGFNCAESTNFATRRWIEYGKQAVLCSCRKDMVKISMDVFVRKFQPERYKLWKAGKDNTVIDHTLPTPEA
Summary of the method: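 His-tagged KDM4A 1-350 (5 nM final) was preincubated 30 min with compound (10 μM final for screening) in 50 mM HEPES pH 8.0 with ascorbate, 10 μM Fe(II) and TCEP. Biotinylated Kme2 peptide (600 nM) and 2-oxoglutarate (5 μM) reacted 120 min at 25°C before a formic acid stop. SAMDI-MS % conversion from substrate and product peak areas; IC50 from dose-response.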

[2] = molecular target: T2, KDM4C (Homo sapiens, UniProt Q9H3R0); test: KDM4C Assay (SAMDI mass spectrometry demethylase assay); format: biochemical; conditions: N-terminal GST-tagged KDM4C 2-372; class symbols; read-out: 4C IC50
T2 construct: N-terminal GST-tagged KDM4C^2-372 was purchased from BPS Biosciences; GST (N); purchased BPS Biosciences
T2 sequence (Q9H3R0 2-372): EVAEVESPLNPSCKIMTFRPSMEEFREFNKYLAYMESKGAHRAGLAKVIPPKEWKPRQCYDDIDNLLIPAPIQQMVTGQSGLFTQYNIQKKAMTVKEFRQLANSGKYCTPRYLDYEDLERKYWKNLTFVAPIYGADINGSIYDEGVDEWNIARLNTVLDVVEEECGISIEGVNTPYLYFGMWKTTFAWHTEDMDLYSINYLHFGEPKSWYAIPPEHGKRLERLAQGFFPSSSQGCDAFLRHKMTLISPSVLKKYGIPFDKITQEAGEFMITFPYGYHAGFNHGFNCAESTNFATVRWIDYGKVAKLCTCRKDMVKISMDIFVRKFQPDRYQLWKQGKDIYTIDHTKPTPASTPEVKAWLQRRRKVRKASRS
Summary of the method: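 GST-tagged KDM4C 2-372 (5 nM) preincubated 30 min with compound, then H3K9me3 biotinylated peptide (500 nM) and 2-oxoglutarate (15 μM) added in HEPES pH 8.0 with ascorbate, Fe(II), TCEP; 150 min at 25 °C, formic-acid quench. Conversion by SAMDI mass spectrometry from substrate/product peak AUC; IC50 from dose-response.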

| Compound | IC50 [1] | IC50 [2] |
| --- | --- | --- |
| Cn1nc(-c2ccc(Cl)cc2)cc1Nc1cnccc1C(=O)O [Compound 24, 3-((3-(4-Chlorophenyl)-1-methyl-1H-pyrazol-5-yl)amino) isonicotinic acid] | 100 to 1000 nM | 1000 to 10000 nM |
| CN(C)CCn1cc(-c2ccccc2)c(Nc2cnccc2C(=O)O)n1 [Compound 64, 3-((1-(2-(dimethylamino)ethyl)-4-phenyl-1H-pyrazol-3-yl)amino)isonicotinic acid] | 1 to 100 nM | 1 to 100 nM |
| CN1CCN(CCn2ncc(-c3ccccc3)c2Nc2cnccc2C(=O)O)CC1 [Compound 35, 3-((1-(2-(4-methylpiperazin-1-yl)ethyl)-4-phenyl-1H-pyrazol-5-yl)amino)isonicotinic acid] | 100 to 1000 nM | 100 to 1000 nM |
| Cn1cc(Nc2cnccc2C(=O)O)c(-c2ccccc2)n1 [Compound 13, 3-((1-methyl-3-phenyl-1H-pyrazol-4-yl)amino) isonicotinic acid] | 1000 to 10000 nM | 100 to 1000 nM |
| Cn1ncc(-c2cccc(F)c2)c1Nc1cnccc1C(=O)O [Compound 10, 3-((4-(3-Fluorophenyl)-1-methyl-1H-pyrazol-5-yl)amino) isonicotinic acid] | 1000 to 10000 nM | 1000 to 10000 nM |

Other lines, results leading:

| IC50 [1] | IC50 [2] | Compound |
| --- | --- | --- |
| 1 to 100 nM | 1 to 100 nM | CNC(=O)c1ccc(-n2ncc(Nc3cnccc3C(=O)O)c2C)cc1 [Compound 58, 3-((5-methyl-1-(4-(methylcarbamoyl)phenyl)-1H-pyrazol-4-yl)amino) isonicotinic acid] |
| 100 to 1000 nM | 100 to 1000 nM | O=C(O)c1ccncc1Nc1nn(CCC(F)(F)F)cc1-c1ccccc1 [Compound 73, 3-((4-phenyl-1-(3,3,3-trifluoropropyl)-1H-pyrazol-3-yl)amino) isonicotinic acid] |
| 100 to 1000 nM | 100 to 1000 nM | Cc1cc(Nc2cnccc2C(=O)O)n(C2CCOCC2)n1 [Compound 78, 3-((3-methyl-1-(tetrahydro-2H-pyran-4-yl)-1H-pyrazol-5-yl)amino) isonicotinic acid] |
| 1 to 100 nM | 100 to 1000 nM | Cc1nn(-c2ccccc2)cc1Nc1cnccc1C(=O)O [Compound 19, 3-((3-Methyl-1-phenyl-1H-pyrazol-4-yl)amino)isonicotinic acid] |
